# Molecular target: T1, Renin (Homo sapiens, UniProt P00797)
# T1 sequence (P00797 whole entry): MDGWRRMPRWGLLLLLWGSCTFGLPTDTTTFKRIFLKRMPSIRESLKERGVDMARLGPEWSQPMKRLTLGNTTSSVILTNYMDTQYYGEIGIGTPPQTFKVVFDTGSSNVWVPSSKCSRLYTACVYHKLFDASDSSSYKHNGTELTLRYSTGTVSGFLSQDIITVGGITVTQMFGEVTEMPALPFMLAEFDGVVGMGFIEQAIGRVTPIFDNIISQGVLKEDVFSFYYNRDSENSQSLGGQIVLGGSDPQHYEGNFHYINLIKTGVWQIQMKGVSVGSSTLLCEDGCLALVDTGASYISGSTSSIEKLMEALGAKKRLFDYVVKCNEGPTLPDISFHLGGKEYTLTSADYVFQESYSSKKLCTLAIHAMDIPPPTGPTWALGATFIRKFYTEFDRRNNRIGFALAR
# Test: Component acylation rate constant by the compound against Renin was determined
row,koff [s⁻¹],Structure (SMILES)
1,0.00135,"CC(C)C[C@H](O)[C@H](O)[C@H](CC1CCCCC1)NC(=O)[C@@H](CC(=O)N(CC(=O)N(C)CCc1ccccn1)[C@@H](C)c1ccccc1)Cc1csc(N)n1 [(R)-2-(2-Amino-thiazol-4-ylmethyl)-N*1*-((1S,2R,3S)-1-cyclohexylmethyl-2,3-dihydroxy-5-methyl-hexyl)-N*4*-{[methyl-(2-pyridin-2-yl-ethyl)-carbamoyl]-methyl}-N*4*-((S)-1-phenyl-ethyl)-succinamide]"
2,0.000234,"CC(C)C[C@H](O)[C@H](O)[C@H](CC1CCCCC1)NC(=O)[C@@H](CC(=O)N(CC(=O)N(C)CCc1ccccn1)CC1CCCCCC1)Cc1csc(N)n1 [(R)-2-(2-Amino-thiazol-4-ylmethyl)-N*4*-cycloheptylmethyl-N*1*-((1S,2R,3S)-1-cyclohexylmethyl-2,3-dihydroxy-5-methyl-hexyl)-N*4*-{[methyl-(2-pyridin-2-yl-ethyl)-carbamoyl]-methyl}-succinamide]"
3,0.000569,"CC(C)C[C@H](O)[C@H](O)[C@H](CC1CCCCC1)NC(=O)[C@@H](CC(=O)N(CC(=O)N(C)CCc1ccccn1)CC1(C)CCCCC1)Cc1csc(N)n1 [(R)-2-(2-Amino-thiazol-4-ylmethyl)-N*1*-((1S,2R,3S)-1-cyclohexylmethyl-2,3-dihydroxy-5-methyl-hexyl)-N*4*-(1-methyl-cyclohexylmethyl)-N*4*-{[methyl-(2-pyridin-2-yl-ethyl)-carbamoyl]-methyl}-succinamide]"
4,0.00175,"COC1(CN(CC(=O)N(C)CCc2ccccn2)C(=O)C[C@@H](Cc2csc(N)n2)C(=O)N[C@@H](CC2CCCCC2)[C@@H](O)[C@@H](O)CC(C)C)CCCCC1 [(R)-2-(2-Amino-thiazol-4-ylmethyl)-N*1*-((1S,2R,3S)-1-cyclohexylmethyl-2,3-dihydroxy-5-methyl-hexyl)-N*4*-(1-methoxy-cyclohexylmethyl)-N*4*-{[methyl-(2-pyridin-2-yl-ethyl)-carbamoyl]-methyl}-succinamide]"
5,0.00028,"CC(C)C[C@H](O)[C@H](O)[C@H](CC1CCCCC1)NC(=O)[C@@H](CC(=O)N(CC(=O)N(C)CCc1ccccn1)CC1CCCCC1)Cc1csc(N)n1 [2-(2-Amino-thiazol-4-ylmethyl)-N*4*-cyclohexylmethyl-N*1*-(1-cyclohexylmethyl-2,3-dihydroxy-5-methyl-hexyl)-N*4*-{[methyl-(2-pyridin-2-yl-ethyl)-carbamoyl]-methyl}-succinamide(BILA 2157 BS)]"
6,0.00133,"CC(C)C[C@H](O)[C@H](O)[C@H](CC1CCCCC1)NC(=O)[C@@H](CC(=O)N(CC(=O)N(C)CCN(C)C(=O)N1CCOCC1)[C@@H](C)c1ccccc1)Cc1csc(N)n1 [(R)-2-(2-Amino-thiazol-4-ylmethyl)-N*1*-((1S,2R,3S)-1-cyclohexylmethyl-2,3-dihydroxy-5-methyl-hexyl)-N*4*-[(methyl-{2-[methyl-(morpholine-4-carbonyl)-amino]-ethyl}-carbamoyl)-methyl]-N*4*-((S)-1-phenyl-ethyl)-succinamide]"
7,0.00481,"CC(C)C[C@H](O)[C@H](O)[C@H](CC1CCCCC1)NC(=O)[C@@H](CC(=O)N(CC(=O)N(C)CCN1CCOCC1)[C@@H](C)c1ccccc1)Cc1csc(N)n1 [(R)-2-(2-Amino-thiazol-4-ylmethyl)-N*1*-((1S,2R,3S)-1-cyclohexylmethyl-2,3-dihydroxy-5-methyl-hexyl)-N*4*-{[methyl-(2-morpholin-4-yl-ethyl)-carbamoyl]-methyl}-N*4*-((S)-1-phenyl-ethyl)-succinamide]"
8,0.0013,"CC(C)C[C@H](O)[C@H](O)[C@H](CC1CCCCC1)NC(=O)[C@@H](CC(=O)N(CC(=O)N(C)CCC(=O)N1CCOCC1)[C@@H](C)c1ccccc1)Cc1csc(N)n1 [(R)-2-(2-Amino-thiazol-4-ylmethyl)-N*1*-((1S,2R,3S)-1-cyclohexylmethyl-2,3-dihydroxy-5-methyl-hexyl)-N*4*-{[methyl-(3-morpholin-4-yl-3-oxo-propyl)-carbamoyl]-methyl}-N*4*-((S)-1-phenyl-ethyl)-succinamide]"

# Source: BindingDB's records for doi:10.1021/jm00010a019 (Boehringer Ingelheim Pharmaceuticals, 1995)
